ChEMBL document CHEMBL4840359, “N-Terminus to Arginine Side-Chain Cyclization of Linear Peptidic Neuropeptide Y Y4 Receptor Ligands Results in Picomolar Binding Constants” (J Med Chem, 2021)
pEC50, pKi: −log10 of the molar value. Activity calls are given as the source filed them. The calls are words filed in the database; no cut-off is given here. Starred links: 1 amine or outer side, 2 acyl side, 3 side chain; linkers in the order of their positions; H or OH if unused. Residues, ends and D or L forms follow the SMILES beside them. Groups on a side chain read outwards from the residue. *: point of attachment. Suc = O=C(CCC(=O)[*:2])[*:1]; CO = O=C([*:1])[*:2]; NH(CH2)3NH2 = NCCCN*

Key:
[1] = organism: Homo sapiens; assay: (§1) Selectivity ratio, Ki for displacement of [3H]UR-MK299 from human neuropeptide Y Y1 receptor in human SK-N-MC cells measured after 90 mins by scintillation counting analysis to Ki for displacement of [3H]UR-KK200 from human neuropeptide Y Y4 receptor expressed in CHO-mtAEQ cells co-expressing Gqi5 measured after 90 mins by scintillation counting analysis; format: cell-based
[2] = target: T1, Neuropeptide Y receptor type 2 (Homo sapiens, UniProt P49146); assay: Displacement of [3H]UR-MK299 from human neuropeptide Y Y2 receptor expressed in CHO cells measured after 90 mins by scintillation counting analysis; format: cell-based; details: for pKi: read-out: Ki; for Ki: read-out: pKi (converted)
T1 sequence (P49146 whole entry): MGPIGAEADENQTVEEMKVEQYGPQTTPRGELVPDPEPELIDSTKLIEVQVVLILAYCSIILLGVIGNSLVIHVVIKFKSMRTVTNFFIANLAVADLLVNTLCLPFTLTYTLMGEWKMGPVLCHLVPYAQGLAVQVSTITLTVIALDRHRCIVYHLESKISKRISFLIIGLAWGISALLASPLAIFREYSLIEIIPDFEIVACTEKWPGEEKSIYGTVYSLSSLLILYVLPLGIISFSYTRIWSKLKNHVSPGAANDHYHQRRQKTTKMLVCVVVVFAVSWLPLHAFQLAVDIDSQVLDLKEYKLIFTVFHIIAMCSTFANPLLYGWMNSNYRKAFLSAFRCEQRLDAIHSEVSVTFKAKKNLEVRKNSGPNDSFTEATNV

[3] = target: T2, Neuropeptide Y receptor type 4 (Homo sapiens, UniProt P50391); assay: Displacement of [3H]UR-KK200 from human neuropeptide Y Y4 receptor expressed in CHO-mtAEQ cells co-expressing Gqi5 measured after 90 mins by scintillation counting analysis; format: cell-based; details: for pKi: read-out: Ki; for Ki: read-out: pKi (converted)
T2 sequence (P50391 whole entry): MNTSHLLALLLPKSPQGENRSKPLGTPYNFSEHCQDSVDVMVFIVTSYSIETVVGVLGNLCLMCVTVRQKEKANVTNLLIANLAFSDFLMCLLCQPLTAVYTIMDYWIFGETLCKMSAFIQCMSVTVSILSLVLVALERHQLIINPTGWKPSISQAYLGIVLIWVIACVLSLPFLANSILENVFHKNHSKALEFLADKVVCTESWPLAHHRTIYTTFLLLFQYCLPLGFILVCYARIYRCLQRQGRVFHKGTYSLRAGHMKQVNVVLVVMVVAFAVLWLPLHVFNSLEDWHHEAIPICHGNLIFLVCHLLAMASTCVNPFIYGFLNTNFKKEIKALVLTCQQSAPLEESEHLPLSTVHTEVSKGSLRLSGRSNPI

[4] = organism: Homo sapiens; assay: Selectivity ratio, Ki for displacement of [3H]UR-MK299 from human neuropeptide Y Y2 receptor expressed in CHO cells measured after 90 mins by scintillation counting analysis to Ki for displacement of [3H]UR-KK200 from human neuropeptide Y Y4 receptor expressed in CHO-mtAEQ cells co-expressing Gqi5 measured after 90 mins by scintillation counting analysis; format: cell-based
[5] = target: T2, Neuropeptide Y receptor type 4; assay: Displacement of [3H]UR-KK200 from human neuropeptide Y Y4 receptor expressed in CHO-mtAEQ cells co-expressing Gqi5 assessed as fold change in affinity measured after 90 mins by scintillation counting analysis relative to Ac-Arg-Tyr-Arg-Leu-Arg-Tyr-NH2; format: cell-based; details: filed as agonist
[6] = target: T3, Neuropeptide Y receptor type 5 (Homo sapiens, UniProt Q15761); assay: Displacement of [3H]propionyl-pNPY from human neuropeptide Y Y5 receptor in human HEC-1B cells measured after 90 mins by scintillation counting analysis; format: cell-based, HEC-1B cell line; details: for pKi: read-out: Ki; for Ki: read-out: pKi (converted)
T3 sequence (Q15761 whole entry): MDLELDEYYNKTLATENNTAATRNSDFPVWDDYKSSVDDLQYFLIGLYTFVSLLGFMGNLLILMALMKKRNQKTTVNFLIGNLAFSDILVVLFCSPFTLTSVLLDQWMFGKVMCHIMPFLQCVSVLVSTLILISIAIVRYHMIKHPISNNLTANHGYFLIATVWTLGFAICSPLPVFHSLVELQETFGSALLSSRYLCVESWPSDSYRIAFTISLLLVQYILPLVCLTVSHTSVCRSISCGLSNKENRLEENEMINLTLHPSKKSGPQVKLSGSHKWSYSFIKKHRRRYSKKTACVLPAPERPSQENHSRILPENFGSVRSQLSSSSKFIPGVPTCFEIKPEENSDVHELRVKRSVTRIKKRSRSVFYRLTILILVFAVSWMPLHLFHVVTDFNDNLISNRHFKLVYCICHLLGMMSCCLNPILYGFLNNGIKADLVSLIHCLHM

[7] = target: T2, Neuropeptide Y receptor type 4; assay: Intrinsic activity at human neuropeptide Y Y4 receptor expressed in HEK293T-ARRB1 cells assessed as stimulation of beta-arrestin 1 recruitment by multimode plate reader relative to hPP; format: functional, cell-based
[8] = target: T2, Neuropeptide Y receptor type 4; assay: Intrinsic activity at human neuropeptide Y Y4 receptor expressed in HEK293T-ARRB2 cells assessed as stimulation of beta-arrestin 2 recruitment by multimode plate reader relative to hPP; format: functional, cell-based
[9] = target: T2, Neuropeptide Y receptor type 4; assay: Agonist activity at human neuropeptide Y Y4 receptor expressed in CHO-mtAEQ cells co-expressing Gqi5 by calcium aequorin assay; format: functional, cell-based
[10] = target: T4, Neuropeptide Y receptor type 1 (Homo sapiens, UniProt P25929); assay: Displacement of [3H]UR-MK299 from human neuropeptide Y Y1 receptor in human SK-N-MC cells measured after 90 mins by scintillation counting analysis; format: cell-based; details: for Ki: read-out: pKi (converted); for pKi: read-out: Ki
T4 sequence (P25929 whole entry): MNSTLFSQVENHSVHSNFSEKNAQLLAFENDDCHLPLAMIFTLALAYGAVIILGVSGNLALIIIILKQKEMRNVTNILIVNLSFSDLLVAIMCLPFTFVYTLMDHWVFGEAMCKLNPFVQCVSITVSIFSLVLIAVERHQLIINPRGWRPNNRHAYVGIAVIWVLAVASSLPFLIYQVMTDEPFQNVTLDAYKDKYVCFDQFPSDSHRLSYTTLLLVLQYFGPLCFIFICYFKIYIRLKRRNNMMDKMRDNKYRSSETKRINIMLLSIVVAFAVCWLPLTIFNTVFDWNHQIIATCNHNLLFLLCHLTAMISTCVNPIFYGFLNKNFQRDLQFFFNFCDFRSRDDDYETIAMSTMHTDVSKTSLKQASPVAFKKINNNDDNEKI

[11] = target: T2, Neuropeptide Y receptor type 4; assay: Agonist activity at human neuropeptide Y Y4 receptor expressed in HEK293T-ARRB2 cells assessed as stimulation of beta-arrestin 2 recruitment by multimode plate reader; format: functional, cell-based
[12] = target: T2, Neuropeptide Y receptor type 4; assay: Intrinsic activity at human neuropeptide Y Y4 receptor expressed in CHO-mtAEQ cells co-expressing Gqi5 by calcium aequorin assay; format: functional, cell-based
[13] = target: T2, Neuropeptide Y receptor type 4; assay: Agonist activity at human neuropeptide Y Y4 receptor expressed in HEK293T-ARRB1 cells assessed as stimulation of beta-arrestin 1 recruitment by multimode plate reader; format: functional, cell-based; details: for pEC50: read-out: EC50; for EC50: read-out: pEC50 (converted)
[14] = organism: Homo sapiens; assay: as §1, with “[3H]propionyl-pNPY” for “[3H]UR-MK299”, “Y5” for “Y1”, “HEC-1B” for “SK-N-MC”; format: cell-based
[15] = Stability in human plasma assessed as intact peptide measured after 1 hr at 37 degC by RP-HPLC analysis; format: ADME, cell-free; details: read-out: Stability
[16] = Stability in human plasma assessed as intact peptide measured after 30 mins at 37 degC by RP-HPLC analysis; format: ADME, cell-free; details: read-out: Stability
[17] = Stability in human plasma assessed as half life at 37 degC by RP-HPLC analysis; format: ADME, cell-free
[18] = Stability in human plasma assessed as intact peptide measured after 6 hr at 37 degC by RP-HPLC analysis; format: ADME, cell-free; details: read-out: Stability
[19] = Stability in human plasma assessed as intact peptide measured after 2 hr at 37 degC by RP-HPLC analysis; format: ADME, cell-free; details: read-out: Stability

pKi [2]	Ki [2]	pKi [3]	Ki [3]	fold change (FC) [5]	Ki [6]	Intrinsic activity [7]	Intrinsic activity [8]	pEC50 [9]	Ki [10]	pEC50 [11]	Intrinsic activity [12]	pEC50 [13]	pKi [6]	pKi [10]	EC50 [13]	Compound	Selectivity ratio [1]	Selectivity ratio [4]	Selectivity ratio [14]	also measured
< 5.00	> 10 µM	8.60	–	1.4	> 3.16 µM	64%	74%	6.17	0.457 µM	6.75	48%	6.54	< 5.52	6.12	–	CC(C)C[C@H](NC(=O)[C@H](CCCNC(=N)N)NC(=O)[C@@H]1CCC(=O)N[C@@H](CCCNC(=N)N)C(=O)NCC(=O)N[C@@H](Cc2ccc(O)cc2)C(=O)N1)C(=O)N[C@@H](CCCNC(=N)N)C(=O)N[C@@H](Cc1ccc(O)cc1)C(N)=O (HELM PEPTIDE1{R.G.Y.E.R.L.R.Y.[am]}$PEPTIDE1,PEPTIDE1,1:R1-4:R3$$$V2.0)	300	> 4000	> 1200	–
< 5.52	> 3.16 µM	7.20	56.2 nM	-19	> 3.16 µM	inactive	inactive	7.04	> 10 µM	7.05	inactive	–	< 5.52	–	123 nM	N=C(N)NCCC[C@H](NC(=O)CCC(=O)O)C(=O)N[C@@H](Cc1ccc(O)cc1)C(=O)N[C@@H](CCCNC(=N)NC(=O)NCCCN)C(=O)N[C@@H](Cc1c[nH]c2ccccc12)C(=O)N[C@@H](CCCNC(=N)N)C(=O)N[C@@H](Cc1ccc(O)cc1)C(N)=O (Suc-RYR([CO-NH(CH2)3NH2])WRY-NH2)	> 150	> 47	> 47	–

The next lines start with the molecule.

Compound	pKi [2]	Ki [2]	pKi [3]	Ki [3]	fold change (FC) [5]	Ki [6]	Intrinsic activity [7]	Intrinsic activity [8]	pEC50 [9]	Ki [10]	pEC50 [11]	Intrinsic activity [12]	pEC50 [13]	pKi [6]	pKi [10]	EC50 [13]	Selectivity ratio [1]	Selectivity ratio [4]	Selectivity ratio [14]	also measured
N=C(N)NCCC[C@@H]1NC(=O)CCC(=O)NCCCNC(=O)NC(=N)NCCC[C@@H](C(=O)N[C@@H](Cc2c[nH]c3ccccc23)C(=O)N[C@@H](CCCNC(=N)N)C(=O)N[C@@H](Cc2ccc(O)cc2)C(N)=O)NC(=O)[C@H](Cc2ccc(O)cc2)NC1=O (HELM PEPTIDE1{R.Y.[N=C(NCCC[C@H](N[*:1])C(=O)[*:2])N[*:3]].W.R.Y.[am]}|CHEM1{[O=C(CCC(=O)[*:1])NCCCNC(=O)[*:2]]}$PEPTIDE1,CHEM1,1:R1-1:R1|PEPTIDE1,CHEM1,3:R3-1:R2$$$V2.0)	< 5.00	> 10 µM	7.55	28.8 nM	-8.2	> 10 µM	35%	47%	6.42	> 10 µM	6.45	45%	6.28	–	–	–	> 350	> 350	> 350	pKi ([6]; hec-1b cell line): < 5.00
CC(=O)N[C@@H](CCCNC(=N)N)C(=O)N[C@@H](Cc1ccc(O)cc1)C(=O)N[C@@H](CCCN/C(N)=N/C(=O)NCCCCN)C(=O)N[C@@H](CC(C)C)C(=O)N[C@@H](CCCNC(=N)N)C(=O)N[C@@H](Cc1ccc(O)cc1)C(N)=O (HELM PEPTIDE1{[ac].R.Y.[NCCCCNC(=O)/N=C(\N)NCCC[C@H](N[*:1])C(=O)[*:2]].L.R.Y.[am]}$$$$V2.0)	–	–	–	–	–	–	–	–	–	–	–	–	–	–	–	–	–	–	–	remaining at 1 h [15]: 77%; remaining at 0.5 h [16]: > 99%; half-life [17]: 102 min; remaining at 6 h [18]: 9%; remaining at 2 h [19]: 38%
CC(C)C[C@H](NC(=O)[C@@H]1CCCNC(=N)NC(=O)NCCCNC(=O)CCC(=O)N[C@@H](CCCNC(=N)N)C(=O)N[C@@H](Cc2ccc(O)cc2)C(=O)N1)C(=O)N[C@@H](CCCNC(=N)N)C(=O)N[C@@H](Cc1ccc(O)cc1)C(N)=O	< 5.52	> 3.16 µM	9.89	0.117 nM	26	> 1 µM	90%	87%	7.82	> 10 µM	8.27	83%	8.46	< 5.52	–	–	> 76000	> 23000	> 23000	–
N=C(N)NCCC[C@H](NC(=O)CCC(=O)O)C(=O)N[C@@H](Cc1ccc(O)cc1)C(=O)N[C@@H](CCCNC(=N)NC(=O)NCCCCN)C(=O)N[C@@H](Cc1c[nH]c2ccccc12)C(=O)N[C@@H](CCCNC(=N)N)C(=O)N[C@@H](Cc1ccc(O)cc1)C(N)=O (single isomer, unassigned)	< 5.52	> 3.16 µM	7.30	–	-15	> 10 µM	inactive	inactive	7.12	> 3.16 µM	6.84	inactive	–	–	< 5.52	85.1 nM	> 60	> 60	> 200	pKi ([6]; hec-1b cell line): < 5.00
CC(C)C[C@H](NC(=O)[C@@H]1CCCNC(=N)NC(=O)NCCCCNC(=O)CCC(=O)N[C@@H](CCCCN)C(=O)N[C@@H](Cc2ccc(O)cc2)C(=O)N1)C(=O)N[C@@H](CCCNC(=N)N)C(=O)N[C@@H](Cc1ccc(O)cc1)C(N)=O (HELM PEPTIDE1{K.Y.[N=C(NCCC[C@H](N[*:1])C(=O)[*:2])N[*:3]].L.R.Y.[am]}|CHEM1{[O=C(CCC(=O)[*:1])NCCCCNC(=O)[*:2]]}$PEPTIDE1,CHEM1,1:R1-1:R1|PEPTIDE1,CHEM1,3:R3-1:R2$$$V2.0)	< 5.00	> 10 µM	9.62	–	14	> 3.16 µM	61%	67%	7.59	> 3.16 µM	7.89	75%	7.85	< 5.52	< 5.52	–	> 12000	> 40000	> 12000	–
CC(C)C[C@H](NC(=O)[C@@H]1CCC(=O)NCC(=O)N[C@H](CCCNC(=N)N)C(=O)N[C@@H](CCCNC(=N)N)C(=O)N1)C(=O)N[C@@H](CCCNC(=N)N)C(=O)N[C@@H](Cc1ccc(O)cc1)C(N)=O	< 5.52	> 3.16 µM	7.52	28.8 nM	-8.8	> 3.16 µM	inactive	inactive	< 5.00	> 3.16 µM	< 5.00	inactive	–	< 5.52	< 5.52	> 10000 nM	> 100	> 100	> 100	–
